Results reported in patent publication US20250230193A1, “CYCLIC COMPOUND HAVING SELECTIVE KRAS INHIBITORY EFFECT ON HRAS AND NRAS” (CHUGAI SEIYAKU KABUSHIKI KAISHA, priority 2022, published 2025).

Assays:
[1] = test system: human lung cancer strain NCI-H441; test: cells; conditions: NCI-H441, 96 h, read-out: NCI-H441 IC50 (nM)
[2] = molecular target: GDP-bound NRAS wild-type protein (Homo sapiens, UniProt P01111); test: Binding to NRAS by surface plasmon resonance (SPR), Single Cycle Kinetics; conditions: SPR; KD ratio class
[3] = molecular target: GDP-bound HRAS wild-type protein (Homo sapiens, UniProt P01112); test: Binding to HRAS by surface plasmon resonance (SPR), Single Cycle Kinetics; conditions: SPR; KD ratio class
Sequence of GDP-bound HRAS wild-type protein (P01112 whole entry): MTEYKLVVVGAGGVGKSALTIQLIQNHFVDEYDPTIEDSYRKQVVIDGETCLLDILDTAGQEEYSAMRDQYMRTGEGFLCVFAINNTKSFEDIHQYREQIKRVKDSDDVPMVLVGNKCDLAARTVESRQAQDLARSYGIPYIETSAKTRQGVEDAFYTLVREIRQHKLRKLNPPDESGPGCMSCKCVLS

Sequence of GDP-bound NRAS wild-type protein (P01111 whole entry): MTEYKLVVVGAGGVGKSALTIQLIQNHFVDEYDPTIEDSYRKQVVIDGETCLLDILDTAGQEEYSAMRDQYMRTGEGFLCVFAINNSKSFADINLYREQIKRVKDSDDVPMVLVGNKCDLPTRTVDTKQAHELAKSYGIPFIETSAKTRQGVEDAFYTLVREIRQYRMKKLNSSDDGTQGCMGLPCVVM

IC50 [1]	Compound	NRAS/KRAS (ratio of KD value for GDP-bound NRAS wild-type protein to KD value for KRAS) [2]	HRAS/KRAS (ratio of KD value for GDP-bound HRAS wild-type protein to KD value for KRAS) [3]
4.2 nM	CC[C@H](C)[C@@H]1NC(=O)[C@H](CC2CCC2)N(C)C(=O)C[C@@H](C(=O)N(C)C)N(C)C(=O)[C@H](C2CCCC2)N(C)C(=O)C2(CCCC2)NC(=O)[C@@H]2CCCN2C(=O)[C@H](CCc2cc(F)c(C(F)(F)F)c(F)c2)NC(=O)CN(C)C(=O)[C@H](Cc2ccc(C(F)(F)F)cc2)N2C[C@H](C)CC[C@@H](C2=O)N(C)C(=O)CN(C)C1=O [PP1386]	B (a compound having 3 or more and less than 10 is denoted as B)	B (a compound having 3 or more and less than 10 is denoted as B)
305 nM	CCO[C@@H]1C[C@H]2C(=O)NC3(CCC3)C(=O)N(C)[C@@H](C3CCCC3)C(=O)N(C)[C@H](C(=O)N(C)C)CC(=O)N(C)[C@@H](CC3CCCC3)C(=O)N[C@@H]([C@@H](C)CC)C(=O)N(C)CC(=O)N(C)[C@H]3C/C=C\CCN(C3=O)[C@@H](Cc3ccc(F)cc3)C(=O)N(C)CC(=O)N[C@@H](CCc3ccc4sccc4c3)C(=O)N2C1 [PP1390]	A (a compound having 10 or more and less than 20 is denoted as A)	A (a compound having 10 or more and less than 20 is denoted as A)
271 nM	CCO[C@@H]1C[C@H]2C(=O)NC3(CCC3)C(=O)N(C)[C@@H](C3CCCC3)C(=O)N(C)[C@H](C(=O)N3CCCC3)CC(=O)N(C)[C@@H](CC3CCCC3)C(=O)N[C@@H]([C@@H](C)CC)C(=O)N(C)CC(=O)N(C)[C@H]3C/C=C\CCN(C3=O)[C@@H](Cc3ccc(F)cc3)C(=O)N(C)CC(=O)N[C@@H](CCc3ccc4sccc4c3)C(=O)N2C1 [PP1391]	A (a compound having 10 or more and less than 20 is denoted as A)	A (a compound having 10 or more and less than 20 is denoted as A)
18.2 nM	CCO[C@@H]1C[C@H]2C(=O)NC3(CCC3)C(=O)N(C)[C@@H](C3CCCC3)C(=O)N(C)[C@H](C(=O)N3CCOCC3)CC(=O)N(C)[C@@H](CC3CCCC3)C(=O)N[C@@H]([C@@H](C)CC)C(=O)N(C)CC(=O)N(C)[C@H]3C/C=C\CCN(C3=O)[C@@H](Cc3ccc(C(F)(F)F)cc3)C(=O)N(C)CC(=O)N[C@@H](CCc3cc(F)c(C(F)(F)F)c(F)c3)C(=O)N2C1 [PP1393]	A (a compound having 10 or more and less than 20 is denoted as A)	A (a compound having 10 or more and less than 20 is denoted as A)
25.1 nM	CCO[C@@H]1C[C@H]2C(=O)NC3(CCC3)C(=O)N(C)[C@@H](C3CCCC3)C(=O)N(C)[C@H](C(=O)N3CCOCC3)CC(=O)N(C)[C@@H](CC3CCCC3)C(=O)N[C@@H]([C@@H](C)CC)C(=O)N(C)CC(=O)N(C)[C@H]3C/C=C\CCN(C3=O)[C@@H](Cc3ccc(C)cc3)C(=O)N(C)CC(=O)N[C@@H](CCc3cc(F)c(C(F)(F)F)c(F)c3)C(=O)N2C1 [PP1394]	AA (a compound having 20 or more is denoted as AA)	A (a compound having 10 or more and less than 20 is denoted as A)
18.8 nM	CCCOC[C@H]1C(=O)N[C@@H]([C@@H](C)CC)C(=O)N(C)CC(=O)N(C)[C@H]2C/C=C\CCN(C2=O)[C@@H](Cc2ccc(C(F)(F)F)cc2)C(=O)N(C)CC(=O)N[C@@H](CCc2cc(F)c(C(F)(F)F)c(F)c2)C(=O)N2C[C@H](OCC)C[C@H]2C(=O)NC2(CCCC2)C(=O)N(C)[C@@H](C2CCCC2)C(=O)N(C)[C@H](C(=O)N2CCCC2)CC(=O)N1C [PP1399]	A (a compound having 10 or more and less than 20 is denoted as A)	A (a compound having 10 or more and less than 20 is denoted as A)
34.4 nM	CCCOC[C@H]1C(=O)N[C@@H]([C@@H](C)CC)C(=O)N(C)CC(=O)N(C)[C@H]2C/C=C\CCN(C2=O)[C@@H](Cc2ccc(C)cc2)C(=O)N(C)CC(=O)N[C@@H](CCc2cc(F)c(C(F)(F)F)c(F)c2)C(=O)N2C[C@H](OCC)C[C@H]2C(=O)NC2(CCCC2)C(=O)N(C)[C@@H](C2CCCC2)C(=O)N(C)[C@H](C(=O)N2CCCC2)CC(=O)N1C [PP1401]	A (a compound having 10 or more and less than 20 is denoted as A)	A (a compound having 10 or more and less than 20 is denoted as A)
82 nM	CC[C@H](C)[C@@H]1NC(=O)[C@H](CC2CC2)N(C)C(=O)C[C@@H](C(=O)N(C)C)N(C)C(=O)[C@H](C2CCCC2)N(C)C(=O)C2(CCC2)NC(=O)[C@H](CCC(F)F)N(C)C(=O)[C@H](CCc2cc(F)c(C(F)(F)F)c(F)c2)NC(=O)CN(C)C(=O)[C@H](Cc2ccc(C(F)(F)F)cc2)N2CC/C=C\C[C@@H](C2=O)N(C)C(=O)CN(C)C1=O [PP1402]	A (a compound having 10 or more and less than 20 is denoted as A)	A (a compound having 10 or more and less than 20 is denoted as A)
111 nM	CC[C@H](C)[C@@H]1NC(=O)[C@H](CC2CC2)N(C)C(=O)C[C@@H](C(=O)N(C)C)N(C)C(=O)[C@H](C2CCCC2)N(C)C(=O)C2(CCC2)NC(=O)[C@H](CC(F)F)N(C)C(=O)[C@H](CCc2cc(F)c(C(F)(F)F)c(F)c2)NC(=O)CN(C)C(=O)[C@H](Cc2ccc(C(F)(F)F)cc2)N2CC/C=C\C[C@@H](C2=O)N(C)C(=O)CN(C)C1=O [PP1403]	AA (a compound having 20 or more is denoted as AA)	A (a compound having 10 or more and less than 20 is denoted as A)
498 nM	CC[C@H](C)[C@@H]1NC(=O)[C@H](CC2CC2)N(C)C(=O)C[C@@H](C)N(C)C(=O)[C@H](C2CCCC2)N(C)C(=O)C2(CCC2)NC(=O)[C@H](CCC(F)F)N(C)C(=O)[C@H](CCc2cc(F)c(C(F)(F)F)c(F)c2)NC(=O)CN(C)C(=O)[C@H](Cc2ccc(C(F)(F)F)cc2)N2CC/C=C\C[C@@H](C2=O)N(C)C(=O)CN(C)C1=O [PP1404]	A (a compound having 10 or more and less than 20 is denoted as A)	A (a compound having 10 or more and less than 20 is denoted as A)
466 nM	CC[C@H](C)[C@@H]1NC(=O)[C@H](CC2CC2)N(C)C(=O)C[C@@H](C)N(C)C(=O)[C@H](C2CCCC2)N(C)C(=O)C2(CCC2)NC(=O)[C@H](CC(F)F)N(C)C(=O)[C@H](CCc2cc(F)c(C(F)(F)F)c(F)c2)NC(=O)CN(C)C(=O)[C@H](Cc2ccc(C(F)(F)F)cc2)N2CC/C=C\C[C@@H](C2=O)N(C)C(=O)CN(C)C1=O [PP1405]	A (a compound having 10 or more and less than 20 is denoted as A)	A (a compound having 10 or more and less than 20 is denoted as A)
37.6 nM	CCO[C@@H]1C[C@H]2C(=O)NC3(CCC3)C(=O)N(C)[C@@H](C3CCCC3)C(=O)N(C)[C@H](C(=O)N3CCOCC3)CC(=O)N(C)[C@@H](CC3CC3)C(=O)N[C@@H]([C@@H](C)CC)C(=O)N(C)CC(=O)N(C)[C@H]3C/C=C\CCN(C3=O)[C@@H](Cc3ccc(C)cc3)C(=O)N(C)CC(=O)N[C@@H](CCc3cc(F)c(C(F)(F)F)c(F)c3)C(=O)N2C1 [PP1408]	A (a compound having 10 or more and less than 20 is denoted as A)	A (a compound having 10 or more and less than 20 is denoted as A)
43.5 nM	CCO[C@@H]1C[C@H]2C(=O)NC3(CCC3)C(=O)N(C)[C@@H](C3CCCC3)C(=O)N(C)[C@H](C(=O)N3CCCC3)CC(=O)N(C)[C@@H](CC3CC3)C(=O)N[C@@H]([C@@H](C)CC)C(=O)N(C)CC(=O)N(C)[C@H]3C/C=C\CCN(C3=O)[C@@H](Cc3ccc(C)cc3)C(=O)N(C)CC(=O)N[C@@H](CCc3cc(F)c(C(F)(F)F)c(F)c3)C(=O)N2C1 [PP1409]	A (a compound having 10 or more and less than 20 is denoted as A)	A (a compound having 10 or more and less than 20 is denoted as A)
51 nM	CCO[C@@H]1C[C@H]2C(=O)NC3(CCC3)C(=O)N(C)[C@@H](C3CCCC3)C(=O)N(C)[C@H](C)CC(=O)N(C)[C@@H](CC3CC3)C(=O)N[C@@H]([C@@H](C)CC)C(=O)N(C)CC(=O)N(C)[C@H]3C/C=C\CCN(C3=O)[C@@H](Cc3ccc(C)cc3)C(=O)N(C)CC(=O)N[C@@H](CCc3cc(F)c(C(F)(F)F)c(F)c3)C(=O)N2C1 [PP1410]	B (a compound having 3 or more and less than 10 is denoted as B)	B (a compound having 3 or more and less than 10 is denoted as B)
23 nM	CCO[C@@H]1C[C@H]2C(=O)NC3(CCC3)C(=O)N(C)[C@@H](C3CCCC3)C(=O)N(C)[C@H](C(=O)N3CCCC3)CC(=O)N(C)[C@@H](CC3CCCC3)C(=O)N[C@@H]([C@@H](C)CC)C(=O)N(C)CC(=O)N(C)[C@H]3C/C=C\CCN(C3=O)[C@@H](Cc3ccc(C)cc3)C(=O)N(C)CC(=O)N[C@@H](CCc3cc(F)c(C(F)(F)F)c(F)c3)C(=O)N2C1 [PP1412]	A (a compound having 10 or more and less than 20 is denoted as A)	A (a compound having 10 or more and less than 20 is denoted as A)
